Assay results taken from US8038984B2, “Membrane-permeant peptide complexes for treatment of sepsis” (Washington University, priority 1998, dated 2011).
Numbered stars: 1 amine (or outer) side, 2 acyl side, 3 side chain; on linkers, the order of the positions; unused ones are H or OH. Square brackets hold non-standard residues; d marks the D form. εLys = N[C@@H](CCCCN[*:1])C(=O)[*:2]; dOrn = NCCC[C@@H](N)C(=O)O; βAla = NCCC(=O)O

Experiments:
human lymphocytes = test: E. coli bacterial-induced lymphocyte apoptosis, staining for active caspase 3; format: cell-based
Procedure: Thymocytes and splenocytes were obtained from CLP and sham-treated mice ˜20 hours postoperatively. The APO-BRDU™ kit (Phoenix Flow Systems, San Diego, Calif.) was employed for flow cytometric quantitation of TUNEL. Antibodies to active caspase 3 (Cell Signaling—Catalog #9664) were used in the flow cytometry and/or TUNEL assay.
Lymphocytes were harvested from peripheral blood obtained from 6 healthy volunteers using a ficol gradient separation technique. Approximately 1×10^6 lymphocytes were plated in individual transwell containers. E. coli bacteria (strain ATCC 25922), that had been grown overnight in trypticase soy broth were added to a separate compartment of the transwell chamber separated from direct contact with the lymphocytes by a 0.02 micron filter (25 μl of bacteria at 3×10^9 CFUs added to 1 ml volume.

[1] = system: human Jurkat leukemia cells; test: Cell accumulation (uptake) of Tc-99m-Tat-peptide complexes in Jurkat cells; format: cell-based; settings: Jurkat cells
Procedure: Control solution for cell uptake experiments was a modified Earle's balanced salt solution (MEBSS) containing (mM): 145 Na^+, 5.4 K^+, 1.2 Ca^2+, 0.8 Mg^2+, 152 Cl^−, 0.8 H2PO4^−, 0.8 SO4^2−, 5.6 dextrose, 4.0 HEPES, and 1% bovine calf serum (vol/vol), pH 7.4±0.05. A 130 mM K^+/20 mM Cl^− solution was made by equimolar substitution of potassium methanesulfonate for NaCl as described by Piwnica-Worms et al. (J. Gen. Physiol., 81:731-748, 1983).
(§1) Characterization of accumulation of Tc-99m-peptide complex was also performed for nonadherent cell lines such as human Jurkat leukemia cells with minor modifications of methods described in the literature (Bosch et al., Leukemia, 11: 1131-1137, 1997). Transport experiments were performed in siliconized microfuge tubes and initiated by addition of 732.5 μl of cells at 2-3×10^6 cells/ml to 10 μl of buffer containing Tc-99m-peptide complex and 7.5 μl of vehicle alone or of any added drug in vehicle at 100-fold the desired concentration. The tubes were incubated in a 37° C. water bath with occasional mixing. The reaction was terminated by centrifuging 250 μl aliquots from the reaction for 10 seconds through 800 μl of a 75:25 mixture of silicon oil, density=1.050 (Aldrich) and mineral oil, density=0.875 (Acros). An aliquot of the aqueous phase was obtained to normalize extracellular concentration of the complex to cell-associated activity, then the oil and aqueous phases were aspirated and the cell pellet extracted in 0.5 ml of 1% SDS, 10 mM sodium borate. For tracer washout experiments, cells were first incubated to plateau uptake (10 min) in loading buffer (37° C.), collected by rapid centrifugation and the pellet resuspended in 50 ml MEBSS (4° C.) to clear extracellular tracer. Following another rapid spin, the cell pellet was resuspended in isotope-free MEBSS (37° C.) and the experiment terminated as above after various times in warm washout buffer. Radioactivity of the cell pellet, buffers and stocks were determined on a gamma counter (Cobra II, 130-165 keV window) and cell protein was determined by the BCA assay (Pierce). Transport data are reported as fmol Tc-complex (mg protein)^−1 (nM0)^− as previously described, with (nM0)^−1 representing total concentration of peptide conjugate in the extracellular buffer (Piwnica-Worms et al., Circulation, 82: 1826-1838, 1990).
Kinetic experiments of [^99mTc]D-Tat-peptide complexes were performed in Jurkat leukemia cells suspended in MEBSS with minor modification of the methods described in Example 6. Transport experiments were performed in siliconized microfuge tubes and initiated by addition of 732.5 μl of cells at 2-3×10^6 cells/ml to 10 μl of MEBSS containing [^99mTc]D-Tat-peptide complex and 7.5 μl of vehicle alone or of any added drug in vehicle at 100 fold the desired concentration. Unless stated otherwise, [^99mTc]D-Tat-peptide complex was added to MEBSS accompanied by a molar excess of unlabeled D-Tat-peptide as obtained directly from the labeling procedure. The final total peptide concentration was 7 nM to 8 μM (1-2 μCi/ml). The tube were incubated at 37° C. and the reaction terminated as previously described. For peptide washout experiments, cells were first incubated to plateau uptake (20 minutes) in MEBSS loading buffer at 37° C., collected by rapid centrifugation and the pellet resuspended in 50 ml of isotope-free MEBSS at 4° C. to clear extracellular tracer. Following another rapid spin, the cell pellet was resuspended in isotope-free MEBSS at 37° C. for various times and the reaction terminated as described previously. Protein assays and determination of gamma activity were as described in Example 6. Absolute concentration of total [Tc]Tat-peptide complex in solution was determined from the specific activity of Tc, based on equations of Mo/Tc generator equilibrium (Lamson et al., J. Nucl. Med., 16:639-641, 1975). […]

[2] = system: human Jurkat leukemia cells; test: Washout of Tc-99m-Tat-peptide complexes from preloaded Jurkat cells; format: cell-based; settings: residual activity remaining within the cell 30 minutes after a wash in isotope-free buffer
Procedure: as §1
Kinetic experiments of [^99mTc]D-Tat-peptide complexes were performed in Jurkat leukemia cells suspended in MEBSS with minor modification of the methods described in Example 6. Transport experiments were performed in siliconized microfuge tubes and initiated by addition of 732.5 μl of cells at 2-3×10^6 cells/ml to 10 μl of MEBSS containing [^99mTc]D-Tat-peptide complex and 7.5 μl of vehicle alone or of any added drug in vehicle at 100 fold the desired concentration. Unless stated otherwise, [^99mTc]D-Tat-peptide complex was added to MEBSS accompanied by a molar excess of unlabeled D-Tat-peptide as obtained directly from the labeling procedure. The final total peptide concentration was 7 nM to 8 μM (1-2 μCi/ml). The tube were incubated at 37° C. and the reaction terminated as previously described. For peptide washout experiments, cells were first incubated to plateau uptake (20 minutes) in MEBSS loading buffer at 37° C., collected by rapid centrifugation and the pellet resuspended in 50 ml of isotope-free MEBSS at 4° C. to clear extracellular tracer. Following another rapid spin, the cell pellet was resuspended in isotope-free MEBSS at 37° C. for various times and the reaction terminated as described previously. Protein assays and determination of gamma activity were as described in Example 6. Absolute concentration of total [Tc]Tat-peptide complex in solution was determined from the specific activity of Tc, based on equations of Mo/Tc generator equilibrium (Lamson et al., J. Nucl. Med., 16:639-641, 1975). Transport data are reported as pmol of peptidei (mg protein)^−1 (μM0)^−1, wherein peptidei represents total peptide conjugate within the cells and (nM0)^−1 represents concentration of total peptide conjugate in the extracellular buffer.

[3] = system: human KB-3-1 and KB-8-5 epidermoid carcinoma cells; test: Fluorescence (confocal) microscopy of subcellular distribution; format: cell-based; settings: 0.5 μM extracellular concentration, KB-3-1 and KB-8-5 cells
Procedure: Subsequently, cells on covers lips were fixed in 4% (v/v) formaldehyde in PBS at room temperature and then rinsed 3 times with PBS (1 min each). Cells were then stained and mounted with anti-fading mounting medium containing propidium iodide (1 μg/ml) following the recommended procedures of the manufacturer (Vectashield). The distribution of the fluorescence was analyzed on a Zeiss confocal laser fluorescence microscope equipped with a mercury lamp, oil immersion objectives and a CCD interfaced to a PC. Propidium iodide distribution was interrogated using 340-380 nm excitation and 430 nm emission, while fluorescein distribution was interrogated using 450-490 nm excitation and 520 nm emission.
To localize the subcellular distribution of the Tat-peptide conjugate, uptake experiments were performed with the fluorescein derivatized conjugate using human KB-3-1 and KB-8-5 epidermoid carcinoma cells.

caspase-3 = biological target: T1, caspase-3 (Homo sapiens, UniProt P42574); test: Cleavage of the caspase-3 cleavable linker in situ in C6-ceramide-treated Jurkat cells; format: cell-based; settings: 5 μM C6-ceramide, 1 μM peptide, RP-HPLC at 440 nm of lysates
T1 construct: Human Jurkat leukemia cells express pro-caspase-3; endogenous in cells; host or cells: Jurkat (human T-cell leukemia)
T1 sequence (P42574 29-175 limits assumed): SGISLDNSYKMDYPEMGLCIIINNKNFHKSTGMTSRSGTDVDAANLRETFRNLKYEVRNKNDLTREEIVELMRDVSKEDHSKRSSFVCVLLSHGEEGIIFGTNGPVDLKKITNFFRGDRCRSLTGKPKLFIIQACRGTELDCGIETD
T1 sequence (P42574 176-277 limits assumed): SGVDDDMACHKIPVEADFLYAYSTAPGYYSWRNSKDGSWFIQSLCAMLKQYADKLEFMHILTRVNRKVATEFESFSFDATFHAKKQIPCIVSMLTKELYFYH
Procedure: Human Jurkat leukemia cells express pro-caspase-3. Apoptosis can be induced by pre-incubation of Jurkat cells for 5 hr in medium containing C6-ceramide, a permeant phospholipid known to activate the cell death program (Herr, et al., EMBO J 16:6200-6208, 1997; Jayadev S, et al., J. Biol Chem 270:2047-2052, 1995). After pre-incubation of Jurkat cells in MEBSS buffer at […] in the absence (untreated) or presence of 5 μM C6-ceramide, 1 μM of the caspase-3 cleavable fluorescein tagged Tat peptide of Example 8 was added to the MEBSS buffer for 30 minutes. Untreated and apoptotic cells were then spun through oil (see Example 6) to clear extracellular spaces of Tat peptide, and the intact cells in the pellet were allowed to incubate for 5 minutes at 37° C. The oil was quickly suctioned off, the reaction terminated with cell lysis buffer (1% SDS, 10 mM sodium borate), and the cell extract centrifuged (500×g for 10 min) to pellet debris and precipitates. The supernatant was removed, lyophilized overnight, and resuspended in 500 μl of water. […] In C6-ceramide-treated cells, however, no such species was observable (FIG. 7).
The above experiment was repeated using the Tc-99m-Tat peptide of Example 8. […] Tc99-m and protein content were determined using published methods (Bosch et al., Leukemia 11:1131-37, 1997).

[4] = biological target: T2, recombinant human active caspase-3 (Homo sapiens, UniProt P42574); test: Cleavage of the caspase-3 cleavable linker in vitro; format: biochemical; settings: 6 hrs incubation with active caspase-3, TLC
T2 construct: recombinant human active caspase-3
T2 sequence (P42574 29-175 limits assumed): T1 sequence (P42574 29-175 limits assumed)
T2 sequence (P42574 176-277 limits assumed): T1 sequence (P42574 176-277 limits assumed)
Procedure: In small reaction vials, Tat peptide chelate as the fluorescein tagged conjugate of Example 8 was incubated with and without recombinant human active caspase-3 in commercially available reaction buffer (caspase buffer, Invitrogen). In vial 1 was peptide conjugate in buffer without caspase-3; in vial 2 was peptide conjugate with active caspase-3; and in vial 3 was stock peptide conjugate. After 6 hrs of incubation to assure completion of the reaction, the reaction mixtures were spotted at the origin of silica gel TLC plates, developed in 15% TFA, and analyzed under an UV lamp. […] This represents direct evidence for successful synthesis of a caspase-3-cleavable Tat peptide imaging conjugate.

Substance: (d)-Ac-RKKRR-Orn-RRR-β-A-(l)-SNRELVVDFLSDKLSQKGDS-COOH (Ac-[dR][dK][dK][dR][dR][dOrn][dR][dR][dR][βAla]SNRELVVDFLSDKLSQKGDS-OH; SMILES CC(=O)N[C@H](CCCNC(=N)N)C(=O)N[C@H](CCCCN)C(=O)N[C@H](CCCCN)C(=O)N[C@H](CCCNC(=N)N)C(=O)N[C@H](CCCNC(=N)N)C(=O)N[C@H](CCCN)C(=O)N[C@H](CCCNC(=N)N)C(=O)N[C@H](CCCNC(=N)N)C(=O)N[C@H](CCCNC(=N)N)C(=O)NCCC(=O)N[C@@H](CO)C(=O)N[C@@H](CC(N)=O)C(=O)N[C@@H](CCCNC(=N)N)C(=O)N[C@@H](CCC(=O)O)C(=O)N[C@@H](CC(C)C)C(=O)N[C@H](C(=O)N[C@H](C(=O)N[C@@H](CC(=O)O)C(=O)N[C@@H](Cc1ccccc1)C(=O)N[C@@H](CC(C)C)C(=O)N[C@@H](CO)C(=O)N[C@@H](CC(=O)O)C(=O)N[C@@H](CCCCN)C(=O)N[C@@H](CC(C)C)C(=O)N[C@@H](CO)C(=O)N[C@@H](CCC(N)=O)C(=O)N[C@@H](CCCCN)C(=O)NCC(=O)N[C@@H](CC(=O)O)C(=O)N[C@@H](CO)C(=O)O)C(C)C)C(C)C) [TAT-BH4(D)2, reference compound]
- bacterial-induced apoptosis (human lymphocytes; 1 μM, human lymphocytes, live E. coli ~5 hours): did not prevent apoptosis

Substance: Bcl-xL: free unconjugated Bcl-xL, anti-apoptotic Bcl-2 family protein
- CD3 T cell apoptosis by staining for active caspase 3 (human lymphocytes; human lymphocytes treated with live E. coli for ~5 hours): a similar decrease was not seen

Substance: acetyl-GRKKRRORRR-AHA-εKGC-amide-fluorescein-maleimide trifluoroacetate [Example 3]
- 20 min Uptake ([1]; [99mTc] complexes, 37° C., 20 min): 42.74 pmol (mg protein)^−1 (μM0)^−1
- U/W Ratio ([1]; uptake/washout ratio): 1.8
- 30 min Washout [2]: 24.32 pmol (mg protein)^−1 (μM0)^−1
- subcellular distribution [3]: rapid cytoplasmic and nuclear accumulation

Substance: fluorescein tagged conjugate of Example 8: caspase-3 cleavable Tat peptide conjugate labeled at the C-terminal thiol of the peptide chelator with fluorescein maleimide (Ac-GRKKRRQRRRGDEVDG[εLys]GC(fluorescein maleimide)-NH2; not fully specified; printed as acetyl-GRKKRRQRRR-GDEVDG-εKGC-amide; also: conjugate)
- cleavage in living cells upon activation of caspase-3 (caspase-3; listed as caspase-3 cleavable fluorescein tagged Tat peptide of Example 8): rapid cleavage
- cleavage in living cells upon activation of caspase-3 (caspase-3; listed as fluorescein tagged Tat peptide): absence of the intact Tat peptide
- cleavage by caspase-3 [4]: cleavage of the Tat peptide conjugate at the D-G cleavage site
